Assay results: patent US4806540A, “1-heteroaryl-4-aryl-pyrazole microbicides” (Bayer Aktiengesellschaft, priority 1985, dated 1989)
In brackets after ≈: the same amount, converted by molar mass.

Tests used:
Pyricularia oryzae = assay type: in vivo, Pyricularia oryzae (on young rice plants); conditions: protective, rice plants; evaluation 4 days after inoculation
[1] = system: fungi: Alternaria tenuis, Aspergillus niger, Aureobasidium pullulans, Chaetomium globosum, Cladosporium cladoporioides, Lentinus tigrinus, Penicillium glaucum …; assay: Minimum inhibitory concentrations (MIC), activity against fungi (agar); assay type: cell-based; conditions: agar from beer wort and peptone; 28° C., 60 to 70% humidity, 2 weeks; 0.1 mg/l to 5,000 mg/l
Experimental: Active compounds according to the invention are added in concentrations of 0.1 mg/l to 5,000 mg/l to an agar prepared from beer wort and peptone. After storage at 28° C. and 60 to 70% relative atmospheric humidity for 2 weeks, the MIC is determined. […] Good actions of the listed test organisms are shown, for example, by the compounds according to Preparation Examples 2, 6a, 12a, 9b, 24 and 25: […]

Escherichia coli = assay: Action against bacteria, MIC (agar); assay type: cell-based; conditions: 336 h, agar containing broth, 28° C., 2 weeks
Experimental: (§1) The nutrient medium is then infected with in each case the test organisms listed in Table C and the infected medium is kept at 28° C. and 60 to 70% relative atmospheric humidity for 2 weeks. […] The compounds according to Preparation Examples 2, 6a, 12a, 9b, 13 and 14 show good actions.

Staphylococcus aureus = assay: Action against bacteria, MIC (agar); assay type: cell-based; conditions: 336 h, agar containing broth, 28° C., 2 weeks
Experimental: as §1

bacteria = assay: Action against bacteria (test organisms of Table C), result in words; assay type: cell-based, Escherichia coli, Staphylococcus aureus; conditions: 1 to 5,000 ppm; agar containing broth, 28° C., 2 weeks
Experimental: as §1

Compound | activity compared with the prior art (Pyricularia oryzae) | action against the listed test organisms (fungi) [1] | MIC (Escherichia coli) [µg/mL] | MIC (Staphylococcus aureus) [µg/mL] | action against bacteria (bacteria)
mixture of 1-pyrid-2-yl-2-acetyl-4-phenyl-pyrazolin-5-one and 1-pyrid-2-yl-4-phenyl-5-acetoxypyrazole [Example 1] | clearly superior activity compared with the prior art |  |  |  | 
O=c1c(-c2ccccc2)cn(S(=O)(=O)c2ccccc2)n1-c1ccccn1 [Example 25] |  | Good actions | 1000 (≈ 2650 µM) | 20 (≈ 53 µM) | 
CC(=O)n1cc(-c2ccccc2)c(=O)n1-c1ncccn1 [Example 2, 1-Pyrimid-2-yl-2-acetyl-4-phenyl-pyrazol-5-one] | clearly superior activity compared with the prior art | Good actions | 750 (≈ 2680 µM) | 1000 (≈ 3570 µM) | good actions
CS(=O)(=O)n1cc(-c2ccccc2)c(=O)n1-c1ccccn1 [Example 24, 1-pyrid-2-yl-2-methylsulphonyl-4-phenyl-pyrazolin-5-one] |  |  | 50 (≈ 159 µM) | 50 (≈ 159 µM) | 
